From patent publication US20260174819A1, “COMPOSITIONS AND METHODS FOR OBTAINING HUMAN ALVEOLAR CELLS AND RELATED USES THEREOF” (The Regents of the University of Michigan, priority 2022, published 2026)

Key:
[1] = system: canalicular stage human lung ALI explants; experiment: Lung ALI explant culture, immunofluorescent staining; assay type: cell-based; conditions: for SFTPA staining in ProSFTPC-positive cells: relative to untreated explants
Description: Human fetal lung within the canalicular stage of lung development was utilized for lung ALI explant cultures (specifically 15-18.5 weeks post conception). Small pieces (<0.5 cm diameter) were dissected from distal regions of the lung and placed on Nucleopore Track-Etched Membrane disks (13 mm, 8 μm pore, poly-carbonate) (Sigma, Cat #WHA110414) floating on top of 500 μl of human lung ALI explant media (Advanced DMEM/F-12 (Thermo Fisher, Cat #12634010), 2 mM Glutamax (Thermo Fisher, Cat #35050061), 15 mM HEPES (Corning, Cat #25060CI), 1× B27 Supplement (Thermo Fisher, Cat #17504044) 1×N-2 Supplement (Thermo Fisher, Cat #17502048), 100 U/mL penicillin-streptomycin (Thermo Fisher, Cat #15140122)) in a 24-well tissue culture plate (Thermo Fisher, Cat #12565163). Where indicated, 1 μM A-8301 (APE×BIO Cat #A3133), 100 ng/mL rhTGFβ1 (R&D Systems Cat #240-B-002), 100 ng/mL rhNOGGIN (produced in-house) or 100 ng/mL BMP4 (R&D Systems Cat #314-BP-050) was added to human lung ALI explant media.
All samples processed were fixed for 24 h in 10% Neutral Buffered Formalin at room temperature with gentle agitation. Samples were washed 3× with UltraPure DNase/RNase-free distilled water (Thermo Fisher, Cat #10977015) and dehydrated through an alcohol series consisting of 25%, 50%, 75% and 100% methanol, followed by 100% and 70% ethanol. For tissue and explants each step was performed for at least 1 h. For organoids each step was performed for at least 15 min. In the case of explants and organoids, specimens were embedded in Histogel (VWR Cat #83009-992) prior to paraffin processing. Samples were paraffin processed in an automated tissue processor through the following series: 70%, 80%, 2× 95%, 3× 100% ethanol, 3× xylene and 3× paraffin with 1 h for each step. Tissue was embedded into paraffin blocks and cut into 5 μm-thick sections onto charged glass slides using a microtome. Slides were baked for 1 h at 60° C. immediately prior to staining.
Slides were treated with 2× HistoClear II (National Diagnostics, Cat #HS-202) washes, then rehydrated through washes in 100%, 95%, 70%, 30% ethanol for 4 min each, with buffer exchanges performed halfway through washing. Then, slides were washed 2×5 min with ddH20. Antigen retrieval in 1× Sodium Citrate Buffer (100 mM trisodium citrate (Sigma, Cat #S1804), 0.5% Tween-20 (Thermo Fisher, Cat #BP337), pH 6.0) for 20 min at 99° C. After washing 3× in ddH20 slides were blocked for 1 h with blocking solution: 5% normal donkey serum (Sigma, Cat #D9663), 0.1% Tween-20 in PBS. Slides were then incubated in primary antibodies diluted in blocking solution in a humidified chamber at 4° C. overnight. Slides were washed 3× in 1×PBS for 10 min each. Slides were incubated with secondary antibodies and DAPI (1 μg/mL) diluted in blocking solution for 1 h, then were washed 3× in 1×PBS for 5 min each. Slides were mounted in ProLong Gold (Thermo Fisher, Cat #P369300) and imaged within 2 weeks. Primary and secondary antibodies used in this study are available in Table 1.

BTP organoids = experiment: BTP organoid differentiation, RT-qPCR of AT2 and BTP markers; assay type: cell-based, human; conditions: 7 days
Description: Primary BTP organoid cultures from 15-18.5 weeks post conception lung tissue were established and maintained as previously reported^3,21,22. BTP organoids were maintained in maintenance media (described below) under 8 mg/mL Matrigel (Corning Cat #354234), fed every three days and passaged 1:3 every 7-10 days by needle sheering.
Differentiations were performed on BTP organoids at passage three by removing maintenance media consisting of: DMEM/F-12 (Corning, Cat #10-092-CV), 100 U/mL penicillin-streptomycin (Thermo Fisher, Cat #15140122), 1×B-27 supplement (Thermo Fisher, Cat #17504044), 1× N2 supplement (Thermo Fisher, Cat #17502048), 0.05% BSA (Sigma, Cat #A9647), 50 μg/mL L-ascorbic acid (Sigma,Cat #A4544), 0.4 μM 1-Thioglycerol (Sigma, Cat #M1753), 50 nM all-trans retinoic acid (Sigma, Cat #R2625), 10 ng/ml recombinant human FGF7 (R&D Systems, Cat #251-KG), and 3 μM CHIR99021 (APE×BIO, Cat #A3011) and replacing with differentiation media. For data in FIG. 3 multiple differentiation medias were tested, all of which consisted of maintenance media with the addition of 1 μM A-8301 and/or the addition of 100 ng/ml BMP4 and/or removal of all trans retinoic acid. B-27 supplement without vitamin A (Thermo Fisher, Cat #12587010) was used instead of full B-27 supplement in conditions in which all trans retinoic acid was removed. For data in all FIGS. 4, 6, 7, 10 differentiation media consisted of common components: DMEM/F12, 100 U/mL penicillin-streptomycin, 1×B-27 supplement without vitamin A, 1× N2 supplement, 0.05% BSA, 50 μg/mL L-ascorbic acid, 0.4 μM 1-Thioglycerol. 10 ng/ml recombinant human FGF7, and 3 μM CHIR99021. To make CK+AB differentiation media 1 μM A-8301 and 100 ng/mL BMP4 was added. To make CKDCI differentiation media 50 nM Dexamethasone (Sigma, Cat #D4902), […] 3-isobutyl-1-methylxanthine (Sigma, Cat #I5879) and […] 8-Bromoadensoine 3′,5′-cyclic monophosphate sodium salt (Sigma, Cat #B7880) was added. Differentiations were fed every three days and passaged at seven day intervals by needle sheering.
(§1) Organoids were dislodged from Matrigel using a P1000 tip, pelleted in a 1.5 mL tube and flash frozen by placing the tube in a small amount of liquid nitrogen with minimal residual media. RNA was isolated from frozen pellets using the MagMax-96 Total RNA Isolation kit (Thermo Fisher, Cat #AM1830) according to the manufacturer's recommendations. RNA quality and yield was determined on a Nanodrop 2000 spectrophotometer. Reverse Transcription was performed in triplicate for each biological replicate using the SuperScript VILO cDNA kit with 200 ng RNA per reaction. After Reverse Transcription, cDNA was diluted 1:2 with DNAse/RNAse free water and 1/40th of the final reaction was used for each RT-qPCR measurement. RT-qPCR measurements were performed using a Step One Plus Real-Time PCR System (Thermo Fisher, Cat #43765592 R) using QuantiTect SYBR Green qPCR Master Mix (Qiagen, Cat #204145) with primers at a concentration of 500 nM. Sequences for RT-qPCR primers used in this manuscript are in Table 2.
For RT-qPCR data arbitrary units (AUs) of gene expression was first calculated using the following equation: 2^(GAPDHCt-TargetCt)×10,000. For FIG. 12B, FIG. 5D, FIG. 7I, FIG. 9E, and FIG. 10H the AUs for each biological replicate were calculated from the mean of technical replicates and a ratio paired t-test was performed between the two conditions compared to determine statistical significance (p). […] For FIG. 3E AUs were normalized to AUs of expression in progenitor media for each biological replicate to obtain fold change. Repeated measures one-way ANOVA was performed with Dunnett's correction on linearized (log-transformed) fold change values comparing all experimental conditions to progenitor medium to determine p.

[2] = system: CK+AB induced AT2-like organoids; experiment: Expansion of AT2-like organoids in SFFF media (growth, RT-qPCR, IF, FACS); assay type: cell-based, human; conditions: for MUC5AC expression (RT-qPCR) on removal of the component from SFFF / SFTPC expression (RT-qPCR) on removal of the component from SFFF: SFFF lacking the component vs SFFF
Description: After 21 days of differentiation in CK+AB or CK+DCI organoids were passaged and fed with SFFF or SFFF without FGF10 consisting of: Advanced DMEM/F12, 2 mM Glutamax, 1× B27 supplement, 100 U/mL penicillin-streptomycin, 15 mM HEPES, 0.05% BSA, 10 μM TGFβ inhibitor SB43152 (APExBIO, Cat #A8249), 1 μM p38 MAP kinase inhibitor BIRB796 (APExBIO, Cat #A5639), 3 μM CHIR99021, 50 ng/mL rhEGF (R&D Systems, Cat #236-EG) with (SFFF) or without the addition of 10 ng/mL FGF10 (produced in-house). Organoids were passaged every 7-14 days at a ratio of 1:6 by needle sheering^93.
as §1
Organoids were retrieved from Matrigel by mechanical dissociation with a P1000, washed 2× with 1 mL PBS and, resuspended with TrypLE and incubated at 37° C. until a single cell suspension was obtained with light pipetting (typically 10 min). Cells were washed 3× with 1 mL of FACS buffer consisting of PBS, 2% BSA and 10 μM Y-27632 (APE×BIO, Cat #3008) and then filtered through a […] mesh. Cells were stained for 1 h on ice in FACS buffer with a 1:60 dilution of anti HTII-280 IgM antibody. Cells were washed 3× with 1 mL of FACS buffer before 30 min of staining in FACS buffer with a 1:1000 dilution of anti-mouse IgM-Alexaflour-488 secondary antibody (Jackson Immunoresearch, Cat #715545140) on ice. After 3× washes with 1 mL of FACS buffer cells were suspended in FACS buffer with 1:4000 dilution of DAPI. […] All steps were carried out at 4° C. unless otherwise indicated. Cells were pelleted at 500×G for 5 min in swing bucket rotors. FACS was performed on either a Sony MA900 or the ThermoFisher Bigfoot Spectral Cell Sorter and analyzed in FlowJo v10.

[3] = added to bud tip progenitor media, vs progenitor media
[4] = CK+AB in absence vs presence of ATRA

Molecule: Cc1cccc(-c2nn(C(=S)Nc3ccccc3)cc2-c2ccnc3ccccc23)n1 [A-8301]
- SFTPA staining in ProSFTPC-positive cells ([1]; day 6 ALI explants): increased
- BTP marker SOX9 expression (RT-qPCR) (BTP organoids; [3]): Neither treatment alone significantly reduced
- SFTPA1 expression (RT-qPCR) (BTP organoids; [3]): significantly increased
- SFTPC expression (RT-qPCR) (BTP organoids; [3]): significantly increased

Molecule: CC1=C(/C=C/C(C)=C/C=C/C(C)=C/C(=O)O)C(C)(C)CCC1 [ATRA, all-trans retinoic acid]
- SFTPB expression (RT-qPCR) on removal of ATRA (BTP organoids; [4]): reduced
- SFTPC expression (RT-qPCR) on removal of ATRA (BTP organoids; [4]): significantly enhancing
- SOX9 expression (RT-qPCR) on removal of ATRA (BTP organoids; [4]): reducing

Molecule: Cc1ccc(-n2nc(C(C)(C)C)cc2NC(=O)Nc2ccc(OCCN3CCOCC3)c3ccccc23)cc1 [BIRB797, reference compound]
- MUC5AC expression (RT-qPCR) on removal of the component from SFFF [2]: increased
- SFTPC expression (RT-qPCR) on removal of the component from SFFF [2]: improved expression

Molecule: TGFβ1: recombinant TGFβ1, activator of TGFβ-signaling, 100 ng/mL
- TP63 expression in epithelial cells ([1]; ALI explants): most epithelial cells expressing TP63
- ProSFTPC staining ([1]; day 6 ALI explants): reduced
- SFTPA staining in ProSFTPC-positive cells ([1]; day 6 ALI explants): barely detectible

B1: NOGGIN: recombinant BMP inhibitor NOGGIN, 100 ng/mL, produced in-house (protein, UniProt Q13253 28-232, looked up)
Noggin: QHYLHIRPAPSDNLPLVDLIEHPDPIFDPKEKDLNETLLRSLLGGHYDPGFMATSPPEDRPGGGGGAAGGAEDLAELDQLLRQRPSGAMPSEIKGLEFSEGLAQGKKQRLSKKLRRKLQMWLWSQTFCPVLYAWNDLGSRFWPRYVKVGSCFSKRSCSVPEGMVCKPSKSVHLTVLRWRCQRRGGQRCGWIPIQYPIISECKCSC
- phosphoSMAD1/5/8 staining ([1]; day 6 ALI explants, 100 ng/mL NOGGIN): blocked
- SFTPA staining in ProSFTPC-positive cells ([1]; day 6 ALI explants): did not change

B2: BMP4: recombinant BMP4, BMP-activator, 100 ng/mL (R&D Systems) (protein, UniProt P12644 293-408, looked up)
Bone morphogenetic protein 4: SPKHHSQRARKKNKNCRRHSLYVDFSDVGWNDWIVAPPGYQAFYCHGDCPFPLADHLNSTNHAIVQTLVNSVNSSIPKACCVPTELSAISMLYLDEYDKVVLKNYQEMVVEGCGCR
- SFTPA staining in ProSFTPC-positive cells ([1]; day 6 ALI explants): robust and readily detectable levels
- BTP marker SOX9 expression (RT-qPCR) (BTP organoids; [3]): Neither treatment alone significantly reduced
- HOPX expression (RT-qPCR) (BTP organoids; [3]): significantly increased
- LAMP3 expression (RT-qPCR) (BTP organoids; [3]): significantly increased
- SFTPA1 expression (RT-qPCR) (BTP organoids; [3]): significantly increased
- SFTPB expression (RT-qPCR) (BTP organoids; [3]): significantly increased

B3: FGF10: recombinant human FGF10, 10 ng/mL, produced in-house, component of SFFF (protein, UniProt O15520 38-208, looked up)
Fibroblast growth factor 10: QALGQDMVSPEATNSSSSSFSSPSSAGRHVRSYNHLQGDVRWRKLFSFTKYFLKIEKNGKVSGTKKENCPYSILEITSVEIGVVAVKAINSNYYLAMNKKGKLYGSKEFNNDCKLKERIEENGYNTYASFNWQHNGRQMYVALNGKGAPRRGQKTRRKNTSAHFLPMVVHS
- MUC5AC expression (RT-qPCR) on removal of the component from SFFF [2]: reduction of MUC5AC to near-zero levels
- SFTPC expression (RT-qPCR) on removal of the component from SFFF [2]: improved expression
- AT2 phenotype of CK+AB differentiated AT2-like cells ([2]; SFFF with vs without FGF10): repressed
